Each block holds one compound with its values, some of them ahead of it.
What was measured:
[1] = system: EBC-1; assay: cells; parameters: MTT antiproliferative assay, absorbance at 570 nm, monolayer cancer cells; details: Homo sapiens, 72 h, MTT, read-out: IC50 (µM) / Mean ± SEM / EBC-1
Description: (§1) MTT (3-(4,5-dimethylthiazol-2-yl)-2,5-diphenyltetrazolium bromide) assay was applied to evaluate the antiproliferative effects of synthetic compounds against cancer and normal cell lines as previously described ([Damghani et al., 2021]). The MTT assay is based on the reduction function of NAD(P)H-dependent cellular oxidoreductase enzymes on yellow tetrazolium dye MTT to its insoluble formazan, which has a purple color and reflects the number of viable cells. Cancer and non-cancer cells were seeded in 96-well flat bottom plates at different densities of 1.5 × 10^4 (HT-29), 3 × 10^4 (A549 and U-87MG), 4 × 10^4 (EBC-1). Synthetic compounds were first dissolved in DMSO and then diluted in growth medium. After 24 h the attached cells were exposed to 100 µL of 3-4 different concentrations of synthesized derivatives in triplicate manner and incubated for an additional 72 h at 37°C. In addition, 3–4 different concentrations of reference compounds were added to wells. To perform the MTT assay the media was discarded from each well and MTT solution in phosphate-buffered saline at a concentration of 0.5 mg/ml was added to all wells. Then, plates were incubated at 37°C for 4 h to allow formation of formazan crystals. Afterwards, crystals were dissolved in 200 μL DMSO, shake on an orbital shaker for 30 min and absorbance was measured at a wavelength of 570 nm with background correction at 650 nm using a Bio-Tek microplate reader (Model Synergy HTX). Finally, IC50 values for each compound was calculated with CurveExpert software version 1.4 for windows. Each experiment was repeated 3–5 times. EBC-1 (human lung adenocarcinoma cells) were obtained from Japanese Collection of Research Bio Resources Cell Bank (JCRB). A549 (human lung adenocarcinoma cells), HT-29 (Human colorectal adenocarcinoma cells) and U-87MG (human primary glioblastoma cells) were obtained from Iranian Biological Resource Centre, Tehran, Iran. EBC-1 cells were cultured in RPMI 1640 medium containing 10% heat-inactivated fetal bovine serum (FBS) and 1% penicillin/streptomycin. A549, HT-29 and U-87MG cells were grown in DMEM low glucose, containing 10% heat-inactivated FBS and 1% penicillin/streptomycin. All cells were grown in monolayer culture at 37°C in a humidified incubator with 5% CO2. We employed the MTT assay in order to investigate the antiproliferative effects of the synthetic compounds against four different cancer cell lines, including lung cancer cell lines EBC-1 (with MET amplification) and A549, the human colorectal cancer cells HT-29, as well as the human glioblastoma cell line U-87MG.

[2] = system: HT-29; assay: cells; parameters: MTT antiproliferative assay, absorbance at 570 nm, monolayer cancer cells; details: Homo sapiens, 72 h, MTT, read-out: IC50 (µM) / Mean ± SEM / HT29
Description: as §1

[3] = system: A549; assay: cells; parameters: MTT antiproliferative assay, absorbance at 570 nm, monolayer cancer cells; details: Homo sapiens, 72 h, MTT, read-out: IC50 (µM) / Mean ± SEM / A549
Description: as §1

[4] = system: U-87MG; assay: cells; parameters: MTT antiproliferative assay, absorbance at 570 nm, monolayer cancer cells; details: Homo sapiens, 72 h, MTT, read-out: IC50 (µM) / Mean ± SEM / U-87MG
Description: as §1

[5] = target: 3) AXL(h) (Homo sapiens, UniProt P30530); assay: biochemical; parameters: Radiometric kinase activity assay, percent inhibition, Eurofins Cerep; details: read-out: Kinase inhibition (%) ^a / 10 µM
Description: (§2) Kinase inhibition profile was examined by Kinase Radiometric Assays for 18 different oncogenic kinases (Eurofins Cerep, Celle l'Evescault, France). In order to investigate the activity of compound CM9, as the most promising agent in this series, against other oncogenic kinases, we further assessed this derivative against a panel of 18 other protein kinases using a radiometric assay at the concentrations of 10 and/or 25 μM (Table 4).

[6] = target: 10) KDR (VEGFR2) (h) (Homo sapiens, UniProt P35968); assay: biochemical; parameters: Radiometric kinase activity assay, percent inhibition, Eurofins Cerep; details: read-out: Kinase inhibition (%) ^a / 10 µM
Description: as §2

[7] = target: 18) ROS1 (Homo sapiens, UniProt P08922); assay: biochemical; parameters: Radiometric kinase activity assay, percent inhibition, Eurofins Cerep; details: read-out: Kinase inhibition (%) ^a / 10 µM / −4
Description: as §2

[8] = target: 15) PDGFRB (PDGFRβ) (h) (Homo sapiens, UniProt P09619); assay: biochemical; parameters: Radiometric kinase activity assay, percent inhibition, Eurofins Cerep
Description: as §2

[9] = target: MAPK1(m) (ERK2) (Mus musculus, UniProt P63085); assay: biochemical; parameters: Radiometric kinase activity assay, percent inhibition, Eurofins Cerep; details: read-out: Kinase inhibition (%) ^a / 10 µM / −4
Description: as §2

[10] = target: 14) PDGFRA (PDGFRα) (h) (Homo sapiens, UniProt P16234); assay: biochemical; parameters: Radiometric kinase activity assay, percent inhibition, Eurofins Cerep; details: read-out: Kinase inhibition (%) ^a / 10 µM / −4
Description: as §2

[11] = target: 19) NTRK1 (TRKA) (h) (Homo sapiens, UniProt P04629); assay: biochemical; parameters: Radiometric kinase activity assay, percent inhibition, Eurofins Cerep; details: read-out: Kinase inhibition (%) ^a / 10 µM / −4
Description: as §2

[12] = target: 1) ABL1(h) (Homo sapiens, UniProt P00519); assay: biochemical; parameters: Radiometric kinase activity assay, percent inhibition, Eurofins Cerep; details: read-out: Kinase inhibition (%) ^a / 10 µM
Description: as §2

[13] = target: 13) MET(h) (Homo sapiens, UniProt P08581); assay: biochemical; parameters: Radiometric kinase activity assay, percent inhibition, Eurofins Cerep
Description: as §2

[14] = target: 8) FLT3 (h) (Homo sapiens, UniProt P36888); assay: biochemical; parameters: Radiometric kinase activity assay, percent inhibition, Eurofins Cerep
Description: as §2

[15] = target: 9) FLT4 (VEGFR3) (Homo sapiens, UniProt P35916); assay: biochemical; parameters: Radiometric kinase activity assay, percent inhibition, Eurofins Cerep; details: read-out: Kinase inhibition (%) ^a / 10 µM
Description: as §2

[16] = target: 5) EGFR(h) (Homo sapiens, UniProt P00533); assay: biochemical; parameters: Radiometric kinase activity assay, percent inhibition, Eurofins Cerep; details: read-out: Kinase inhibition (%) ^a / 10 µM
Description: as §2

[17] = target: 2) ALK(h) (Homo sapiens, UniProt Q9UM73); assay: biochemical; parameters: Radiometric kinase activity assay, percent inhibition, Eurofins Cerep; details: read-out: Kinase inhibition (%) ^a / 10 µM
Description: as §2

[18] = target: 4) KIT (c-Kit) (h) (Homo sapiens, UniProt P10721); assay: biochemical; parameters: Radiometric kinase activity assay, percent inhibition, Eurofins Cerep; details: read-out: Kinase inhibition (%) ^a / 10 µM
Description: as §2

[19] = target: 11) MAPK3 (ERK1) (h) (Homo sapiens, UniProt P27361); assay: biochemical; parameters: Radiometric kinase activity assay, percent inhibition, Eurofins Cerep; details: read-out: Kinase inhibition (%) ^a / 10 µM
Description: as §2

[20] = target: 16) RET(h) (Homo sapiens, UniProt P07949); assay: biochemical; parameters: Radiometric kinase activity assay, percent inhibition, Eurofins Cerep; details: read-out: Kinase inhibition (%) ^a / 10 µM / −4
Description: as §2

[21] = target: 17) MST1R (RON) (h) (Homo sapiens, UniProt Q04912); assay: biochemical; parameters: Radiometric kinase activity assay, percent inhibition, Eurofins Cerep; details: read-out: Kinase inhibition (%) ^a / 10 µM / −4
Description: as §2

[22] = target: 6) FGFR1(h) (Homo sapiens, UniProt P11362); assay: biochemical; parameters: Radiometric kinase activity assay, percent inhibition, Eurofins Cerep; details: read-out: Kinase inhibition (%) ^a / 10 µM
Description: as §2

[23] = target: 7) FLT1 (VEGFR1) (h) (Homo sapiens, UniProt P17948); assay: biochemical; parameters: Radiometric kinase activity assay, percent inhibition, Eurofins Cerep; details: read-out: Kinase inhibition (%) ^a / 10 µM
Description: as §2

[24] = target: FGFR1 (Homo sapiens, UniProt P11362); assay: radiometric kinase panel, % inhibition at […]; format: biochemical
[25] = target: ALK (Homo sapiens, UniProt Q9UM73); assay: radiometric kinase panel, % inhibition at […]; format: biochemical
[26] = target: FLT4 (VEGFR3) (Homo sapiens, UniProt P35916); assay: radiometric kinase assay (Eurofins), concentration-effect curve; format: biochemical
[27] = target: MET kinase (Homo sapiens, UniProt P08581); assay: HTRF kinase assay; confirmed by radiometric assay; format: biochemical
[28] = target: FLT1 (VEGFR1) (Homo sapiens, UniProt P17948); assay: radiometric kinase panel, % inhibition at […]; format: biochemical
[29] = target: AXL (Homo sapiens, UniProt P30530); assay: radiometric kinase panel, % inhibition at […]; format: biochemical
[30] = read-out: Kinase inhibition (%) ^a / 10 µM / −4
[31] = read-out: Kinase inhibition (%) ^a / 25 µM

13) MET(h), sequence (P08581 whole entry): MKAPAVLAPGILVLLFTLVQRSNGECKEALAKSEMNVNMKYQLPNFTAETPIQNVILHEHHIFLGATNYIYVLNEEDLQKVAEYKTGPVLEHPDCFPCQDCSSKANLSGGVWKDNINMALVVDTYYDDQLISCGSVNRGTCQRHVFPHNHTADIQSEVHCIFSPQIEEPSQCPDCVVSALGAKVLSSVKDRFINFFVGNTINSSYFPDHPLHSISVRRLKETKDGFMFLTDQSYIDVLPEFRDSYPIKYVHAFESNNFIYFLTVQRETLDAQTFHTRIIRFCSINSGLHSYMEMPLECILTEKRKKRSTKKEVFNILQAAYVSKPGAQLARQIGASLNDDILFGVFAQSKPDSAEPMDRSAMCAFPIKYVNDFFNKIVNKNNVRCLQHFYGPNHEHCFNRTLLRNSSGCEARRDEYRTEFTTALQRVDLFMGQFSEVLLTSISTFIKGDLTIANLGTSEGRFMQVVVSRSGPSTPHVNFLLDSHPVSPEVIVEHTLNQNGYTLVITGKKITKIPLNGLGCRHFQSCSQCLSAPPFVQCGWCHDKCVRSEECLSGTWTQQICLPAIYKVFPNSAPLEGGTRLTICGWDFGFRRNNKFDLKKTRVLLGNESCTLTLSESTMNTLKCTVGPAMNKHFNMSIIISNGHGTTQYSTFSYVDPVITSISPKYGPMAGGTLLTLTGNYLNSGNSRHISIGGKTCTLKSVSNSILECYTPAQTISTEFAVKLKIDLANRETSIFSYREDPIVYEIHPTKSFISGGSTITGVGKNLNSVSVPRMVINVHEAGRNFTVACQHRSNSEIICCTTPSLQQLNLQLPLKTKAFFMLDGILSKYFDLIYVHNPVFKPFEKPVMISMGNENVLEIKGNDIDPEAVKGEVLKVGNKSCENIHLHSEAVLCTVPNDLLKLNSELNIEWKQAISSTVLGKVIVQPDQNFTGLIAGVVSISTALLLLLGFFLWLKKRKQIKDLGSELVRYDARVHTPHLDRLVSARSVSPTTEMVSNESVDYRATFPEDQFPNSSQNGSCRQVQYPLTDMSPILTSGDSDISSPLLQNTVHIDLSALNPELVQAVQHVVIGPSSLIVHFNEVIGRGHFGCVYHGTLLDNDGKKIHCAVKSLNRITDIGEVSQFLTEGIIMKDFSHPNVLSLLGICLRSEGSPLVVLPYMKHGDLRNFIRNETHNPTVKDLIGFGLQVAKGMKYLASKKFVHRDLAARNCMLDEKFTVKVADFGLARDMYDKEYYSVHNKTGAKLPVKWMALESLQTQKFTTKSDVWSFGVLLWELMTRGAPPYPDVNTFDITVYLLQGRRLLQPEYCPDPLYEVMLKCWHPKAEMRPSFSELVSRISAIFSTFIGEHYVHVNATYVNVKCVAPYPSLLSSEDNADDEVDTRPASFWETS
15) PDGFRB (PDGFRβ) (h), sequence (P09619 whole entry): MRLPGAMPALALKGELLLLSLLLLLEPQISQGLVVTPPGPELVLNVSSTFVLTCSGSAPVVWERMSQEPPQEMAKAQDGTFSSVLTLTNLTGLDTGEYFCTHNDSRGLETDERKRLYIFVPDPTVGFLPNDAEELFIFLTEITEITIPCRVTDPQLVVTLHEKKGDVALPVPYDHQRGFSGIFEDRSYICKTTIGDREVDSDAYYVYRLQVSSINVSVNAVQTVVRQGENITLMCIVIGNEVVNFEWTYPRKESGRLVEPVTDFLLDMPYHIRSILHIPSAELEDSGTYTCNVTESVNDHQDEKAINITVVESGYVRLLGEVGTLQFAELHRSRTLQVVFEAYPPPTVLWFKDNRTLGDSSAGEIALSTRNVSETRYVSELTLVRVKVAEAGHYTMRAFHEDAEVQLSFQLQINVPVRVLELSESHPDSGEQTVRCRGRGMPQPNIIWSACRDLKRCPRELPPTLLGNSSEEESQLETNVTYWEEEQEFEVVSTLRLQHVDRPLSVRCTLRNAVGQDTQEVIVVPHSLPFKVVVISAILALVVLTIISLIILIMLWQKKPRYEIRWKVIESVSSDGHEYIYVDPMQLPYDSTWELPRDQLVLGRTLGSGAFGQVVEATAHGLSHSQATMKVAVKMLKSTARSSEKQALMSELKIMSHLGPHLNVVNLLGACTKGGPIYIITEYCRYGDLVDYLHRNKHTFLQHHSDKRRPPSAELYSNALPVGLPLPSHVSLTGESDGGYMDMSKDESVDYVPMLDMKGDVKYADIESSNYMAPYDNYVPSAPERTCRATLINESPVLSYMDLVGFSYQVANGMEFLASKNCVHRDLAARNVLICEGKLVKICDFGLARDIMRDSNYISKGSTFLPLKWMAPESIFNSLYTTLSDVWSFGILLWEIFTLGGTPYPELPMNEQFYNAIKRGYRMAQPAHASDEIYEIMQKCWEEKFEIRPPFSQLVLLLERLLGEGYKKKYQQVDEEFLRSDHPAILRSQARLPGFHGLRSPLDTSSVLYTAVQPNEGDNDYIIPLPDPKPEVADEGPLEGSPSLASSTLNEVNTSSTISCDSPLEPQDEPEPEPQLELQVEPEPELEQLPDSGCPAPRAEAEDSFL
8) FLT3 (h), sequence (P36888 whole entry): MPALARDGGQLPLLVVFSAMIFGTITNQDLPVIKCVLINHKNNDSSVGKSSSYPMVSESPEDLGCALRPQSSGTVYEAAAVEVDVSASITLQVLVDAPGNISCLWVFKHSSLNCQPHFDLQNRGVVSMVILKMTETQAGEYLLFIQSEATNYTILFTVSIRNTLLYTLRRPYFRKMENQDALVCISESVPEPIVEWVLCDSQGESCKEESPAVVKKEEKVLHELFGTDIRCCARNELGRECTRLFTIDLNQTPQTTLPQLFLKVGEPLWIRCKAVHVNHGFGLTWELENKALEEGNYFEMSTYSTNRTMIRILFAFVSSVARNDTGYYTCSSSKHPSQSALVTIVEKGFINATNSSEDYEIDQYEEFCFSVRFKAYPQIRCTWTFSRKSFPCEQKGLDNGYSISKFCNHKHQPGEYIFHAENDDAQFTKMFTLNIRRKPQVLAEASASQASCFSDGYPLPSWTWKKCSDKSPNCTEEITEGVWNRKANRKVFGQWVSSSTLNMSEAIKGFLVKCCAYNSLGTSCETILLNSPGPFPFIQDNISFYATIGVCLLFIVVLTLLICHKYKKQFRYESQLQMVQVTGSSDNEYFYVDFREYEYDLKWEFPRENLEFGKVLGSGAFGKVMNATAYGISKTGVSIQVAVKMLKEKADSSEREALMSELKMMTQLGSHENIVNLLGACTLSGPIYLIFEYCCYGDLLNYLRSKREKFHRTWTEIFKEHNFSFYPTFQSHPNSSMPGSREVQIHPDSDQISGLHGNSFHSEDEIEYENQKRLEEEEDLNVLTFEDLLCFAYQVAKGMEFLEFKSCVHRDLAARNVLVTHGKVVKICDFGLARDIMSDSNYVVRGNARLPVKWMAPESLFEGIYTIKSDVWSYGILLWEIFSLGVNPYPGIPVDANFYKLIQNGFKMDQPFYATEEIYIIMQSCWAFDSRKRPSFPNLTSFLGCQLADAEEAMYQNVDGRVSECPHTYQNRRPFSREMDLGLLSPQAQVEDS
16) RET(h), sequence (P07949 whole entry): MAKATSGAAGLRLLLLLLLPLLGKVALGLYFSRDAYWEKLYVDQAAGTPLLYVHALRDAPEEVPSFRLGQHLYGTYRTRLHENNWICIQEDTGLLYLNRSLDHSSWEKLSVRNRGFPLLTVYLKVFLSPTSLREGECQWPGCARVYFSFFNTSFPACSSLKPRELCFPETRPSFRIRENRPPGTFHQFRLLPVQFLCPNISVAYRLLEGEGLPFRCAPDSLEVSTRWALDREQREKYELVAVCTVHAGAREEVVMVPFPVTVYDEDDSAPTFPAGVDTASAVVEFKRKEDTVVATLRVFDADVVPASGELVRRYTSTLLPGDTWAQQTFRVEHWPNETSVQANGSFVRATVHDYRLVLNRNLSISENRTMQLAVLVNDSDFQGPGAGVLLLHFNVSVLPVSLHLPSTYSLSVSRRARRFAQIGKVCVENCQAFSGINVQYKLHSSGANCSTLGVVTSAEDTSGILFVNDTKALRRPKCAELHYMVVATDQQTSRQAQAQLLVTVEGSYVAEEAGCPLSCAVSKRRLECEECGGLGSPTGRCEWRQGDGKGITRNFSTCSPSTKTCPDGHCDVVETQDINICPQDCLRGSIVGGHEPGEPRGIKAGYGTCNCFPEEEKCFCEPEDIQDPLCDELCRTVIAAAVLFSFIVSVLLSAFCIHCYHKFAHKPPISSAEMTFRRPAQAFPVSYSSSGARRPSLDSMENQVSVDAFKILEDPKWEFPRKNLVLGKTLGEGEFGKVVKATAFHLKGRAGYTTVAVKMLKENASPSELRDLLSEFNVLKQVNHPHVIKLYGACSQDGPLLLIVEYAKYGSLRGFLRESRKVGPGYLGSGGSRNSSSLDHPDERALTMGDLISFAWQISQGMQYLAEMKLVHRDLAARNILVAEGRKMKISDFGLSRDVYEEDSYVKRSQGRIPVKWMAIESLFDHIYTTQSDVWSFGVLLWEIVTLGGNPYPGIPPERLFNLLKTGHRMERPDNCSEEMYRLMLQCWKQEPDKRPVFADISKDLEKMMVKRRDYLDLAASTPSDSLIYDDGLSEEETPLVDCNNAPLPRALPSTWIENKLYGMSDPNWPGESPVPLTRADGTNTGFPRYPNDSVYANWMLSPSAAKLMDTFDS
MAPK1(m) (ERK2), sequence (P63085 whole entry): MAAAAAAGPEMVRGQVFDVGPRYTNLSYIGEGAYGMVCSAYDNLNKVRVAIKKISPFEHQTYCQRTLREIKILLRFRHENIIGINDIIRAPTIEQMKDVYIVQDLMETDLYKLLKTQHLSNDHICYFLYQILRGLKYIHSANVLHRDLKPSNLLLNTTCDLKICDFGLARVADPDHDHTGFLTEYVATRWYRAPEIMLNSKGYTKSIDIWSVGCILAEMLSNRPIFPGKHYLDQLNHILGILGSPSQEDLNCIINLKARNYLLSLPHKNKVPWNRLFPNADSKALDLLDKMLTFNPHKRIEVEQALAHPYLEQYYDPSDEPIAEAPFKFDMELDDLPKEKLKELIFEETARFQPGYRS

Structure (SMILES): Cn1c(N/N=C/c2ccc(OCc3cn(Cc4ccc([N+](=O)[O-])cc4)nn3)cc2)nc2ccccc2c1=O [CM1]
IC50 [1]: > 100 µM
IC50 [2]: > 100 µM
IC50 [3]: > 100 µM
IC50 [4]: > 100 µM

Structure (SMILES): Cc1ccc(Cn2cc(COc3ccc(/C=N/Nc4nc5ccccc5c(=O)n4C)cc3)nn2)cc1 [CM2]
IC50 [1]: > 100 µM
IC50 [2]: > 100 µM
IC50 [3]: > 100 µM
IC50 [4]: > 100 µM

Structure (SMILES): Cn1c(N/N=C/c2ccc(OCc3cn(Cc4ccc(Cl)cc4)nn3)cc2)nc2ccccc2c1=O [CM5]
IC50 [1]: > 100 µM
IC50 [2]: > 100 µM
IC50 [3]: > 100 µM
IC50 [4]: > 100 µM

Structure (SMILES): Cn1c(N/N=C/c2ccc(OCc3cn(Cc4ccccc4)nn3)cc2)nc2ccccc2c1=O [CM6]
IC50 [1]: 32.5 ± 6.8 µM
IC50 [2]: > 100 µM
IC50 [3]: > 100 µM
IC50 [4]: > 100 µM

Structure (SMILES): Cn1c(N/N=C/c2ccc(OCc3cn(Cc4ccc(Br)cc4)nn3)cc2)nc2ccccc2c1=O [CM9, (E)-2-(2-(4-((1-(4-bromobenzyl)-1H-1,2,3-triazol-4-yl)methoxy)benzylidene)hydrazinyl)-3-methylquinazolin-4(3H)-one]
inhibition at 10 µM [5]: 28%
inhibition at 10 µM [6]: 0%
inhibition at 10 µM [7]: -25%
inhibition at 10 µM [8, 30]: 23%
inhibition at 25 µM [8, 31]: 10%
inhibition at 10 µM [9]: 3%
inhibition at 10 µM [10]: 5%
inhibition at 10 µM [11]: 4%
inhibition at 10 µM [12]: 14%
inhibition at 10 µM [13, 30]: 27%
inhibition at 25 µM [13, 31]: 58%
inhibition at 10 µM ([14]; read-out: Kinase inhibition (%) ^a / 10 µM): 24%
inhibition at 25 µM [14, 31]: 47%
inhibition at 10 µM [15]: 86%
inhibition at 10 µM [16]: -2%
inhibition at 10 µM [17]: 25%
inhibition at 10 µM [18]: 0%
inhibition at 10 µM [19]: -4%
inhibition at 10 µM [20]: -12%
inhibition at 10 µM [21]: 5%
inhibition at 10 µM [22]: 39%
inhibition at 10 µM [23]: 22%
inhibition at 25 µM [24]: 66%
inhibition at 25 µM [25]: 51%
IC50 [26]: 5.01 µM
IC50 [27]: 22.8 ± 3.9 µM
inhibition at 25 µM [28]: 82%
inhibition at 25 µM [29]: 65%
IC50 [1]: 8.6 ± 1.9 µM
IC50 [2]: 65.2 ± 15.4 µM
IC50 [3]: 64.9 ± 2.9 µM
IC50 [4]: 24.6 ± 2.6 µM

The next compounds have a lower IC50 [2] than those just listed; values first:

IC50 [2]: 56.4 ± 14.5 µM
IC50 [3]: > 100 µM
IC50 [4]: > 100 µM
Structure (SMILES): Cn1c(N/N=C/c2ccc(OCc3cn(Cc4ccc(C(C)(C)C)cc4)nn3)cc2)nc2ccccc2c1=O [CM3]
IC50 [1]: > 100 µM

IC50 [2]: 47.8 ± 6.7 µM
IC50 [3]: 34.5 ± 2.2 µM
IC50 [4]: 51.1 ± 7.6 µM
Structure (SMILES): Cn1c(N/N=C/c2ccc(OCc3cn(Cc4ccc(Cl)c(Cl)c4)nn3)cc2)nc2ccccc2c1=O [CM8]
IC50 [1]: 22.4 ± 6 µM

IC50 [2]: 27.8 ± 5.1 µM
IC50 [3]: > 100 µM
IC50 [4]: 67.1 ± 6.2 µM
Structure (SMILES): Cn1c(N/N=C/c2ccc(OCc3cn(Cc4ccc(F)cc4)nn3)cc2)nc2ccccc2c1=O [CM4]
IC50 [1]: 36.2 ± 10.8 µM

From paper PMC9713320, “Study of the anticancer effect of new quinazolinone hydrazine derivatives as receptor tyrosine kinase inhibitors” (Frontiers in Chemistry, 2022)
